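Following 48 hours of exposure in 96-well plates, responses at five concentrations were used to interpolate endpoints linearly. TGI denotes the concentration required for complete inhibition of growth.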
Tests used:
Experiment in all cases: DTP human tumour cell line panel, 48 h
NCI-H226 lung = test system: NCI-H226 lung
NCI-H23 lung = test system: NCI-H23 lung
ACHN renal = test system: ACHN renal
M14 melanoma = test system: M14 melanoma
UO-31 renal = test system: UO-31 renal
SK-OV-3 ovarian = test system: SK-OV-3 ovarian
UACC-62 melanoma = test system: UACC-62 melanoma
BT-549 breast = test system: BT-549 breast
CCRF-CEM leukemia = test system: CCRF-CEM leukemia
NCI-H460 lung = test system: NCI-H460 lung
DU-145 prostate = test system: DU-145 prostate
CAKI-1 renal = test system: CAKI-1 renal
T-47D breast = test system: T-47D breast
SF-268 CNS = test system: SF-268 CNS
UACC-257 melanoma = test system: UACC-257 melanoma
U251 CNS = test system: U251 CNS
HCT-15 colon = test system: HCT-15 colon
MALME-3M melanoma = test system: MALME-3M melanoma
SNB-19 CNS = test system: SNB-19 CNS
MDA-N = test system: MDA-N
SF-295 CNS = test system: SF-295 CNS
HOP-62 NSCLC = test system: HOP-62 NSCLC
MCF7 breast = test system: MCF7 breast
KM12 colon = test system: KM12 colon
NCI/ADR-RES ovarian = test system: NCI/ADR-RES ovarian
IGROV1 ovarian = test system: IGROV1 ovarian
OVCAR-5 ovarian = test system: OVCAR-5 ovarian
SK-MEL-2 melanoma = test system: SK-MEL-2 melanoma
LOX IMVI melanoma = test system: LOX IMVI melanoma
SK-MEL-28 melanoma = test system: SK-MEL-28 melanoma
HS 578T breast = test system: HS 578T breast
NCI-H522 lung = test system: NCI-H522 lung
SK-MEL-5 melanoma = test system: SK-MEL-5 melanoma
SN12C renal = test system: SN12C renal
MDA-MB-231 breast = test system: MDA-MB-231 breast
EKVX NSCLC = test system: EKVX NSCLC
OVCAR-8 ovarian = test system: OVCAR-8 ovarian
A498 renal = test system: A498 renal
HOP-92 NSCLC = test system: HOP-92 NSCLC
HT29 colon = test system: HT29 colon
RXF 393 renal = test system: RXF 393 renal
HCT-116 colon = test system: HCT-116 colon
HCC-2998 colon = test system: HCC-2998 colon
A549 NSCLC = test system: A549 NSCLC
COLO 205 colon = test system: COLO 205 colon
HL-60(TB) leukemia = test system: HL-60(TB) leukemia
786-0 renal = test system: 786-0 renal
OVCAR-3 ovarian = test system: OVCAR-3 ovarian
PC-3 prostate = test system: PC-3 prostate
MOLT-4 leukemia = test system: MOLT-4 leukemia
K-562 leukemia = test system: K-562 leukemia
TK-10 renal = test system: TK-10 renal
OVCAR-4 ovarian = test system: OVCAR-4 ovarian
SW-620 colon = test system: SW-620 colon
MDA-MB-435 = test system: MDA-MB-435
SF-539 CNS = test system: SF-539 CNS
RPMI-8226 leukemia = test system: RPMI-8226 leukemia
SR leukemia = test system: SR leukemia
SNB-75 CNS = test system: SNB-75 CNS

Cc1cc(-c2ccccc2)nc2oc(=O)n(C)c12
TGI (NCI-H226 lung): > 100 µM
TGI (NCI-H23 lung): > 100 µM
TGI (ACHN renal): > 100 µM
TGI (M14 melanoma): > 100 µM
TGI (UO-31 renal): > 100 µM
TGI (SK-OV-3 ovarian): > 100 µM
TGI (UACC-62 melanoma): > 100 µM
TGI (BT-549 breast): > 100 µM
TGI (CCRF-CEM leukemia): > 100 µM
TGI (NCI-H460 lung): > 100 µM
TGI (DU-145 prostate): > 100 µM
TGI (CAKI-1 renal): > 100 µM
TGI (T-47D breast): > 100 µM
TGI (SF-268 CNS): > 100 µM
TGI (UACC-257 melanoma): > 100 µM
TGI (U251 CNS): > 100 µM
TGI (HCT-15 colon): > 100 µM
TGI (MALME-3M melanoma): > 100 µM
TGI (SNB-19 CNS): > 100 µM
TGI (MDA-N): > 100 µM
TGI (SF-295 CNS): > 100 µM
TGI (HOP-62 NSCLC): > 100 µM
TGI (MCF7 breast): > 100 µM
TGI (KM12 colon): > 100 µM
TGI (NCI/ADR-RES ovarian): > 100 µM
TGI (IGROV1 ovarian): > 100 µM
TGI (OVCAR-5 ovarian): > 100 µM
TGI (SK-MEL-2 melanoma): > 100 µM
TGI (LOX IMVI melanoma): > 100 µM
TGI (SK-MEL-28 melanoma): > 100 µM
TGI (HS 578T breast): > 100 µM
TGI (NCI-H522 lung): > 100 µM
TGI (SK-MEL-5 melanoma): > 100 µM
TGI (SN12C renal): > 100 µM
TGI (MDA-MB-231 breast): > 100 µM
TGI (EKVX NSCLC): > 100 µM
TGI (OVCAR-8 ovarian): > 100 µM
TGI (A498 renal): > 100 µM
TGI (HOP-92 NSCLC): > 100 µM
TGI (HT29 colon): > 100 µM
TGI (RXF 393 renal): > 100 µM
TGI (HCT-116 colon): > 100 µM
TGI (HCC-2998 colon): > 100 µM
TGI (A549 NSCLC): > 100 µM
TGI (COLO 205 colon): > 100 µM
TGI (HL-60(TB) leukemia): > 100 µM
TGI (786-0 renal): > 100 µM
TGI (OVCAR-3 ovarian): > 100 µM
TGI (PC-3 prostate): > 100 µM
TGI (MOLT-4 leukemia): > 100 µM
TGI (K-562 leukemia): > 100 µM
TGI (TK-10 renal): > 100 µM
TGI (OVCAR-4 ovarian): > 100 µM
TGI (SW-620 colon): > 100 µM
TGI (MDA-MB-435): > 100 µM

Oc1ccccc1/C=N/N1C(=S)N(C23CC4CC(CC(C4)C2)C3)C(=Nc2ccccc2)C1=Nc1ccccc1
TGI (NCI-H226 lung): > 100 µM
TGI (NCI-H23 lung): > 100 µM
TGI (ACHN renal): > 100 µM
TGI (M14 melanoma): > 100 µM
TGI (UO-31 renal): > 100 µM
TGI (SK-OV-3 ovarian): > 100 µM
TGI (UACC-62 melanoma): > 100 µM
TGI (BT-549 breast): > 100 µM
TGI (NCI-H460 lung): > 100 µM
TGI (DU-145 prostate): > 100 µM
TGI (CAKI-1 renal): > 100 µM
TGI (T-47D breast): > 100 µM
TGI (SF-268 CNS): > 100 µM
TGI (UACC-257 melanoma): > 100 µM
TGI (U251 CNS): > 100 µM
TGI (HCT-15 colon): > 100 µM
TGI (MALME-3M melanoma): > 100 µM
TGI (SNB-19 CNS): > 100 µM
TGI (MDA-N): > 100 µM
TGI (SF-295 CNS): > 100 µM
TGI (HOP-62 NSCLC): > 100 µM
TGI (KM12 colon): > 100 µM
TGI (NCI/ADR-RES ovarian): > 100 µM
TGI (IGROV1 ovarian): > 100 µM
TGI (SF-539 CNS): > 100 µM
TGI (OVCAR-5 ovarian): > 100 µM
TGI (SK-MEL-2 melanoma): > 100 µM
TGI (SK-MEL-28 melanoma): > 100 µM
TGI (RPMI-8226 leukemia): > 100 µM
TGI (HS 578T breast): > 100 µM
TGI (NCI-H522 lung): > 100 µM
TGI (SK-MEL-5 melanoma): > 100 µM
TGI (SN12C renal): > 100 µM
TGI (MDA-MB-231 breast): > 100 µM
TGI (EKVX NSCLC): > 100 µM
TGI (OVCAR-8 ovarian): > 100 µM
TGI (HOP-92 NSCLC): > 100 µM
TGI (HT29 colon): > 100 µM
TGI (SR leukemia): > 100 µM
TGI (RXF 393 renal): > 100 µM
TGI (HCT-116 colon): > 100 µM
TGI (HCC-2998 colon): > 100 µM
TGI (A549 NSCLC): > 100 µM
TGI (COLO 205 colon): > 100 µM
TGI (786-0 renal): > 100 µM
TGI (OVCAR-3 ovarian): > 100 µM
TGI (PC-3 prostate): > 100 µM
TGI (MOLT-4 leukemia): > 100 µM
TGI (K-562 leukemia): > 100 µM
TGI (TK-10 renal): > 100 µM
TGI (SW-620 colon): > 100 µM
TGI (MDA-MB-435): > 100 µM

CCOC(=O)c1c(-c2ccccc2)c(OC)cn1C
TGI (NCI-H226 lung): > 10 µM
TGI (NCI-H23 lung): > 10 µM
TGI (ACHN renal): > 10 µM
TGI (M14 melanoma): > 10 µM
TGI (SK-OV-3 ovarian): > 10 µM
TGI (UACC-62 melanoma): > 10 µM
TGI (BT-549 breast): > 10 µM
TGI (CCRF-CEM leukemia): > 10 µM
TGI (NCI-H460 lung): > 10 µM
TGI (DU-145 prostate): > 10 µM
TGI (CAKI-1 renal): > 10 µM
TGI (T-47D breast): > 10 µM
TGI (SF-268 CNS): > 10 µM
TGI (UACC-257 melanoma): > 10 µM
TGI (U251 CNS): > 10 µM
TGI (HCT-15 colon): > 10 µM
TGI (MALME-3M melanoma): > 10 µM
TGI (SNB-19 CNS): > 10 µM
TGI (MDA-N): > 10 µM
TGI (SF-295 CNS): > 10 µM
TGI (HOP-62 NSCLC): > 10 µM
TGI (MCF7 breast): > 10 µM
TGI (KM12 colon): > 10 µM
TGI (NCI/ADR-RES ovarian): > 10 µM
TGI (IGROV1 ovarian): > 10 µM
TGI (SF-539 CNS): > 10 µM
TGI (OVCAR-5 ovarian): > 10 µM
TGI (SK-MEL-2 melanoma): > 10 µM
TGI (LOX IMVI melanoma): > 10 µM
TGI (SK-MEL-28 melanoma): > 10 µM
TGI (RPMI-8226 leukemia): > 10 µM
TGI (HS 578T breast): > 10 µM
TGI (NCI-H522 lung): > 10 µM
TGI (SNB-75 CNS): > 10 µM
TGI (SK-MEL-5 melanoma): > 10 µM
TGI (SN12C renal): > 10 µM
TGI (MDA-MB-231 breast): > 10 µM
TGI (EKVX NSCLC): > 10 µM
TGI (OVCAR-8 ovarian): > 10 µM
TGI (A498 renal): > 10 µM
TGI (HT29 colon): > 10 µM
TGI (RXF 393 renal): > 10 µM
TGI (HCT-116 colon): > 10 µM
TGI (HCC-2998 colon): > 10 µM
TGI (A549 NSCLC): > 10 µM
TGI (COLO 205 colon): > 10 µM
TGI (HL-60(TB) leukemia): > 10 µM
TGI (786-0 renal): > 10 µM
TGI (OVCAR-3 ovarian): > 10 µM
TGI (PC-3 prostate): > 10 µM
TGI (MOLT-4 leukemia): > 10 µM
TGI (K-562 leukemia): > 10 µM
TGI (TK-10 renal): > 10 µM
TGI (OVCAR-4 ovarian): > 10 µM
TGI (SW-620 colon): > 10 µM
TGI (MDA-MB-435): > 10 µM

Source: PubChem BioAssay (NCI)
